Source: patent US20040121965A1, “Method of treating resistant tumors” (Wyeth Holdings Corporation, priority 2002, published 2004)
Read-outs that look alike come from different tables or passages of the source. Marks after values point to notes of the source that are not given here.

Assays:
[1] = test system: S1; test: Cell survival assay (SRB), S1; type: cell-based; conditions: Homo sapiens; S1 parental; Table 5; read-out: S1 IC50, nM (N)
From the text: (§1) Cells lines with previously known mechanisms of resistance. […] Res. 8: 207-218,1996); KB-3-1 (parental derived from an epidermoid carcinoma), KB-8.5, KB-V1 (Akiyama S-I, Fojo A, Hanover J A, Pastan I, Gottesman M M. Isolation and genetic characterization of human KB cell lines resistant to multiple drugs. Somatic Cell Mol. Gen., 11: 117-126,1985; Shen D-W, Cardarelli C, Hwang J, Cornwell M, Richert N, Ishii S, Pastan I, Gottesman MM. […] J. Biol. Chem., 261: 7762-7770, 1986); and HL-60 (parental derived from human leukemia) and HL60/AR (McGrath T., Center M. S. Adriamycin resistance in HL60 cells in the absence of detectable P-glycoprotein. Biochem. Res. Commun., 145:1171-1176,1987); A549 and A549.EpoB40 (He L., Yang C.-P.H., Horwitz S. B. Mutations in p-tubulin map to domains involved in regulation of microtubule stability in epothilone-resistant cell lines. Molecular Cancer Therapeutics. 1: 3-10, 2001). HCT-15 human colon carcinoma and DLD-1 human colon carcinoma are obtained from American Tissue Culture Collection. The MX-1W carcinoma is a Wyeth variant orginally obtained as MX-1 breast carcinoma from the National Cancer Institute. Cell lines selected for resistance to Representative Example 129. KB-3-1 cells are selected for resistance to Example 129 by chronically exposing cells to increasing concentrations of Example 129.
(§2) 2.2. Cell Survival Assay: Standard Pharmacological Test Procedure. The concentration of candidate inhibitor required to inhibit 50% of cell growth (IC50) is done according to previously reported methods. […] Compounds are serially diluted into media as 2× stocks and 100 μl added to cells in duplicate. Compounds are incubated with cells for 3 days. At the end of the incubation period the sulforhodamine B (SRB) assay, which measures protein content as an assessment of cell survival, is performed as described previously (Skehan P, Storeng R, Scudiero D, Monks A, McMahon J, Vistica D, Warren J T, Bokesch H, Kenney S, Boyd MR. New calorimetric cytotoxicity assay for anticancer-drug screening. J Natl Cancer Inst 1990 Jul 4;82(13):1107-12) with some modification as follows. For KB-3-1 cells with 20% FCS, media is gently decanted and replaced with 200 μl of serum-free media mixed with cold 50% TCA for a final concentration of 10% TCA. The plates are incubated for 1 hr at 4° C., followed by washing 5 times in cold distilled water, then air dried overnight. The fixed cells are stained for 10 min with 80 μl of 0.04% SRB solution prepared in 1% glacial acetic acid. Stain is discarded and plates washed 5 times in 1% glacial acetic acid, then air-dried until completely dry. Stained cell product is dissolved in 150 μl of 10 mM Trizma Base and placed on a shaker for 20 minutes until fully dissolved. Absorbance is read on a Victor V multi-label plate reader (Perkin Elmer, Gaithersburg, Md.).

[2] = test system: HL60/AR (MRP1); test: Cell survival assay, HL60/AR (MRP1); conditions: for IC50: Homo sapiens, HL-60/AR, read-out: HL60/AR (MRP1) IC50, nM (N); for RR, relative resistance: IC50 HL60/AR / IC50 HL60
From the text: as §1, §2
(§3) J. Cell Science,113: 2011-2021, 2000). It was unknown whether the hemiasterlin family of peptides interact with these drug pumps.

[3] = test system: KB-8-5 (MDR1+); test: Cell survival assay (SRB), KB-8-5 (MDR1+); conditions: for IC50: Homo sapiens; for RR, relative resistance: IC50 KB-8-5 / IC50 KB-3-1; for resistance of KB-8-5 cells: KB-8-5 (KB-85) vs KB-3-1, in vitro
[4] = test system: S1-M1-3.2 (MXR); test: Cell survival assay, S1-M1-3.2 (MXR); type: cell-based, human; conditions: for IC50: Homo sapiens, S1-M1-3.2, MXR over-expression, Table 5, read-out: S1-M1-3.2 (MXR) IC50, nM (N); for RR, relative resistance: IC50 S1-M1-3.2 / IC50 S1
From the text: as §1, §2, §3

[5] = test system: HL60; test: Cell survival assay (MTS), HL60; type: cell-based; conditions: Homo sapiens, HL-60; HL60 parental; Table 5; read-out: HL60 IC50, nM (N)
[6] = test system: KB-V1 (MDR1++); test: Cell survival assay (SRB), KB-V1 (MDR1++); conditions: for IC50: Homo sapiens; for RR, relative resistance: IC50 KB-V1 / IC50 KB-3-1
[7] = test system: KB-3-1; test: Cell survival assay (SRB), KB-3-1; type: cell-based, human
Method in brief: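 Cells were exposed to serially diluted compound in duplicate for 3 days. Survival was read as protein content by SRB (TCA fixation 1 hr at 4 °C, 0.04% SRB stain, dissolved in 10 mM Tris, absorbance). KB-3-1 was grown in 20% FCS. IC50 is the concentration giving 50% growth inhibition.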

[8] = test system: KB-HTI-4.0; test: Cell survival assay, KB-3-1 line made resistant to Example 129 (KB-HTI-4.0); type: cell-based, human; conditions: for IC50: KB-3-1 line made resistant to Example 129, Table 8, read-out: KB-HTI-4.0 IC50
From the text: as §1, §2
Cells are selected for resistance to Example 129 to understand the frequency and mechanistic basis of resistance.

[9] = test system: A549.EpoB40; type: cell-based; conditions: vs A549; below 1 = sensitive
From the text: as §1
as §2, with “Stained cell product is dissolved in 150 μl of 10 mM Trizma Base and placed on a shaker for 20 minutes until fully dissolved.” left out

[10] = test system: Human Melanoma Carcinoma Lox
[11] = test system: MX-1W tumor; test: Growth of tumors in nude mice, MX-1W xenograft; type: in vivo
From the text: (§4) 2.4. Growth of Tumors in Nude Mice.

[12] = test system: KB-PTX-15+099; test: Cell survival assay, KB-PTX-15+099 (paclitaxel-resistant, non-MDR); type: cell-based, human
[13] = test system: tumor cell lines; test: cells; type: cell-based; conditions: HL60/AR (MRP1) or S1-M1-3.2 (MXR)
From the text: as §1, §2

[14] = test system: HCT-15 tumor; test: Growth of tumors in nude mice, HCT-15 xenograft; type: in vivo; conditions: vincristine 1 mg/kg IP, days 1,5,9
From the text: as §4

[15] = test system: KB-8.5 tumor; test: Growth of tumors in nude mice, KB-8-5 xenograft; type: in vivo; conditions: vincristine 1 mg/kg IP, days 1,5,9
From the text: as §4

[16] = test system: human carcinoma xenografts; test: Growth of tumors in nude mice, several xenograft models and tolerated dose; type: in vivo; conditions: DLD-1, MX-1W or HCT-15 tumors; at or near the MTD
From the text: as §4

[17] = test system: DLD-1 tumor; test: Growth of tumors in nude mice, DLD-1 xenograft; type: in vivo; conditions: vincristine 1 mg/kg IP, days 1,5,9
From the text: as §4

[18] = test system: Human Epidermoid Carcinoma KB-3-1; test: Growth of tumors in nude mice, KB-3-1 xenograft; type: in vivo; conditions: KB-3-1; vincristine 1 mg/kg IP, days 1,5,9
Description: as §4
In these experiments, xenografts are implanted subcutaneously into the flanks of nude mice. […] Relative tumor mass compared to controls are assessed during the 21-day post-staging period.
Groups of 5 female nu/nu mice are injected with 1.5×10^6 KB-3-1 (A) or Lox cells (B). […] Relative tumor growth is determined during the experiment and % T/C calculated. Statistical analyses are Student's t-test of treated time points vs. vehicle (*, P<0.05; **, P<0.01)

[19] = MDR1, read-out: KB-8-5 (MDR1+) IC50, nM (N)
[20] = read-out: KB-V1 (MDR1++) IC50, nM (N)
[21] = Homo sapiens, KB-3-1 parental, Table 3, read-out: KB-3-1 IC50, nM (N)
[22] = Homo sapiens, KB-3-1 parental, Table 8, read-out: KB-3-1 IC50
[23] = Lox, vincristine 1 mg/kg IP, days 1,5,9
[24] = MX-1W, vincristine 1 mg/kg IP, days 1,5,9

Row | Molecule | IC50 [1] [nM] | IC50 [2] [nM] | RR, relative resistance [2] | IC50 [3, 19] [nM] | RR, relative resistance ([3]; Table 3) | resistance of KB-8-5 cells [3] [fold] | IC50 [4] [nM] | RR, relative resistance [4] | IC50 [5] [nM] | IC50 [6, 20] [nM] | RR, relative resistance ([6]; Table 3) | IC50 [7, 21] [nM] | IC50 [7, 22] [nM] | IC50 ([8]; Homo sapiens) [nM] | (RR) relative resistance vs. parental cells ([8]; KB-HTI-4.0 vs KB-3-1) | resistance of A549.EpoB40 cells [9] [fold] | other results
1 | COc1cccc2c1C(=O)c1c(O)c3c(c(O)c1C2=O)C[C@@](O)(C(=O)CO)C[C@@H]3O[C@H]1C[C@H](N)[C@H](O)[C@H](C)O1 [adriamycin] | 221 ± 113 | > 3000 | >124 | 658 ± 483 | 15 | 15 | 11500 ± 367 | 52 | 24.2 ± 6.8 | 11500 ± 9670 | 265 | 43.3 ± 32 | 33.9 ± 21.2 | 552 ± 111 | (16) | – | –
2 | O=C1c2c(O)ccc(O)c2C(=O)c2c(NCCNCCO)ccc(NCCNCCO)c21 [mitoxantrone] | 31 | 190 | 32.4 | 19.1 | 1.9 | – | 16600 | 535 | 5.9 | > 3000 | >291 | 10.3 ± 6.9 | 10 ± 6.5 | 430 ± 159 | (43) | – | –
3 | CC[C@]1(O)C[C@@H]2CN(CCc3c([nH]c4ccccc34)[C@@](C(=O)OC)(c3cc4c(cc3OC)N(C)[C@H]3[C@@](O)(C(=O)OC)[C@H](OC(C)=O)[C@]5(CC)C=CCN6CC[C@]43[C@@H]65)C2)C1 [vinblastine] | 6.5 | 2 | 3.7 | – | 37 | 37 | 12.7 | 1.9 | 0.5 | – | 1848 | – | – | 6.19 ± 1.26 | – | 0.2 | Activity in nude mice animal model (% T/C @ MTD on days 11-15) LOX ([10]; staged LOX xenograft, at MTD ('<': MTD not achieved), days 11-15): 9%; IC50 ([3]; MDR1, read-out: KB-8-5 (MDR1+) IC50, nM (N), KB-8-5, moderate MDR1 expression, Table 3): 29.2 ± 22 nM; IC50 ([6]; read-out: KB-V1 (MDR1++) IC50, nM (N), KB-V1, high MDR1 expression, Table 3): 1460 ± 1020 nM; Activity in nude mice animal model (% T/C @ MTD on days 11-15) MX-1W ([11]; staged MX-1W xenograft, at MTD, days 11-15): 64%; IC50 ([12]; Homo sapiens, KB-PTX-15+099, Table 6, read-out: KB-PTX-15+099 IC50): 0.192 ± 0.022 nM; Average Relative Resistance (RR) ([12]; IC50 KB-PTX-15+099 / IC50 KB-3-1, less than 1 = increased sensitivity): (0.27); increased sensitivity of KB-PTX-15+099 cells ([12]; vs KB-3-1): 3.7 fold; IC50 ([7]; Homo sapiens, KB 3-1, 72 h, amount of drug needed to kill 50% of cells after three days continuous exposure, Table 11, read-out: IC50 in parental cell line KB-3-1): 0.8 nM; IC50 ([7]; Homo sapiens, KB 3-1, KB-3-1, Table 6, read-out: KB-3-1 IC50): 0.703 ± 0.097 nM; IC50 ([7]; Homo sapiens, KB 3-1, KB-3-1 parental, Table 3, read-out: KB-3-1 IC50, nM (N)): 0.79 ± 0.5 nM; IC50 ([7]; Homo sapiens, KB 3-1, KB-3-1 parental, Table 8, read-out: KB-3-1 IC50): 0.73 ± 0.03 nM; resistance detected in cells over-expressing MRP1 or MXR [13]: no resistance; (RR) relative resistance vs. parental cells [8]: (9); resistance of KB-3-1-derived cell lines selected with Example 129 ([8]; vs KB-3-1): 9 fold
4 | CC[C@]1(O)C[C@H]2CN(CCc3c([nH]c4ccccc34)[C@@](C(=O)OC)(c3cc4c(cc3OC)N(C=O)[C@H]3[C@@](O)(C(=O)OC)[C@H](OC(C)=O)[C@]5(CC)C=CCN6CC[C@]43[C@@H]65)C2)C1 [vincristine] | – | – | – | – | – | – | – | – | – | – | – | – | – | – | – | – | % T/C on day 9 [14]: 91%; % T/C on day 13 [14]: 81%; % T/C on day 17 [14]: 95%; % T/C on day 21 [14]: 107%; % T/C on day 6 [15]: 71%; % T/C on day 14 [15]: 85%; % T/C on day 21 [15]: 81%; % T/C on day 7 [10, 23]: 13** %; % T/C on day 12 [10, 23]: 3** %; response of tumors [16]: no response; % T/C on day 7 [11, 24]: 65%; % T/C on day 14 [11, 24]: 61%; % T/C on day 7 [17]: 113%; % T/C on day 14 [17]: 119%; % T/C on day 21 [17]: 177%; % T/C on day 7 [18]: 15** %; % T/C on day 14 [18]: 12** %; % T/C on day 21 [18]: 17** %
5 | epothilone B | – | – | – | – | – | – | – | – | – | – | – | – | – | – | (4) | 107 | IC50 ([7]; KB-3-1 parental, Table 8, read-out: KB-3-1 IC50): 0.63 ± 0.08 nM; IC50 [8]: 2.37 ± 2.2 nM
